Paper PMC4361741 (Journal of psychopharmacology (Oxford, England), 2012)
Counter-ions that a name gives are not always drawn.

Legend:
human κ-receptor = human κ-receptor (Homo sapiens, UniProt P41145); assay: [3H]-diprenorphine competitive binding assay, CHO-κ cell membranes; details: from Ki values, Table 1
CD-1 mice [1] = assay: Elevated-plus maze; assay type: in vivo
CD-1 mice [2] = assay: Light dark box; assay type: in vivo; details: 8 and 15 d post-injection; diazepam 1 mg/kg 30 min prior
CD-1 mice [3] = assay: Sucrose consumption test; details: fluoxetine 10 mg/kg, vs saline-treated controls
CD-1 mice [4] = assay: Forced swim test; assay type: in vivo
CD-1 mice [5] = assay: Tail suspension test; assay type: in vivo; details: pilot studies, fluoxetine 10 mg/kg; control 6.9 ± 0.7 N
CD-1 mice [6] = assay: Warm water tail-withdrawal test, block of U50,488-induced antinociception; assay type: in vivo; details: U50,488 10 mg/kg, single injection
κ-receptors [7] = biological target: κ-receptors (Cavia porcellus, UniProt P41144); assay: Isolated guinea-pig ileum, U50,488 concentration-response curves
Wistar rats = assay: κ-agonist; assay type: in vivo; details: 1 mg/kg
rats = details: ref Wiley et al., 2009; cited from earlier work
κ-receptors [8] = details: single injection, ref Endoh et al., 1992, Jones and Holtzman; cited from earlier work
rat = details: 20mg/kg; ref Wiley et al., 2009; cited from earlier work
δ-receptor = δ-receptor (Rattus norvegicus, UniProt P33533); assay: [3H]-diprenorphine competitive binding assay, C6-δ cell membranes
μ-receptors = assay: Isolated guinea-pig ileum, DAMGO concentration-response curves; details: agonist at maximal doses
[9] = diazepam 1 mg/kg 30 min prior to test, each test day

NC(N)=Nc1ccc2[nH]c3c(c2c1)C[C@@]1(O)[C@H]2Cc4ccc(O)c5c4[C@@]1(CCN2CC1CC1)[C@H]3O5 [GNTI, 5’-guanidinonaltrindole]
κ-selectivity vs. δ (human κ-receptor): ~4

CN1C(=O)CN=C(c2ccccc2)c2cc(Cl)ccc21 [diazepam]
EPM entries into the open arms (CD-1 mice [1]; [9]): significantly increased | EPM time spent in the open arms (CD-1 mice [1]; [9]): significantly increased | LDB time spent in the lit compartment (CD-1 mice [2]): significantly different from saline treated controls

CNCCC(Oc1ccc(C(F)(F)F)cc1)c1ccccc1 (centres unmarked) [fluoxetine, fluoxetine hydrochloride]
increase in sucrose consumption (CD-1 mice [3]): 40% | FST time spent immobile (CD-1 mice [4]; fluoxetine 10 mg/kg 30 min prior, days 6 and 13): decreased the time spent immobile | TST average force (CD-1 mice [5]): 7.7 ± 0.5 N

Oc1ccc2c3c1O[C@H]1c4[nH]c5c(c4C[C@@]4(O)[C@@H](C2)N(CC2CC2)CC[C@]314)C[C@@]1(O)[C@H]2Cc3ccc(O)c4c3[C@@]1(CCN2CC1CC1)[C@H]5O4 [norBNI, Norbinaltorphimine]
effect on antinociceptive effects of U50,488 (overall) (CD-1 mice [6]): significantly reduced the antinociceptive effects of U50,488 | reversibility of κ-antagonist effect on washout (κ-receptors [7]): reversed on washout | effect on U50,488 Emax (κ-receptors [7]; increasing antagonist concentrations): without significant affect on Emax | pA2 Schild plot (+ 95% CI), κ (κ-receptors [7]; vs U50,488, n=4 tissues): 8.30 | FST time spent immobile (CD-1 mice [4]; 6 and 13 d post-injection of antagonist): significantly decreased the time spent immobile | behavioural effects in the FST still apparent, time post-injection (CD-1 mice [4]; single injection): up to 13 days post-injection | EPM number of entries into the open arms (CD-1 mice [1]; 7 d post-injection): significantly increased | EPM time spent in the open arms (CD-1 mice [1]; 7 d post-injection): significantly increased the time spent | EPM time spent in the open arms (CD-1 mice [1]; 14 d post-injection, 1 and 10 mg/kg): significantly increased the time spent in the open arms | reduction of U50,488-evoked diuresis (Wistar rats; 8 d post-treatment): about 30% | reduction of U50,488-evoked diuresis (Wistar rats; 15 d post-treatment): maintained at 15 d post-treatment | effect on sucrose (0.5%) consumption (rats): had no effect on sucrose (0.5%) consumption | reversal of the effects of U50,488 on sucrose consumption (rats): did reverse the effects of U50,488 | time maximal levels maintained (κ-receptors [8]): 7 to 10 days | time of peak effects post-administration (κ-receptors [8]): ~ 24 h | time of returning to control levels (κ-receptors [8]): 3–4 weeks | duration of antidepressant-like effects in the rat FST (rat): up to 4 wks post-injection | Ki (δ-receptor): 0.46 ± 0.09 nM

DAMGO
inhibition of electrically-evoked twitches (μ-receptors): ~ 90%
